Results on 32 compounds are retold here after patent US9771378B2 (Denali Therapeutics, Inc., priority 2014, dated 2017).

pIC50: −log10 of the molar value.

The assay deals with Aβ42 (human neuroglioma H4 cells expressing human wild type APP751). The assay can be described thus: In vitro cell screening assay with sandwich ELISA quantification of Aβ42 peptide. It is filed as cell-based. Particulars: H4 cells stably expressing human wild type APP751; Pro293 chemically defined medium; compounds 0.003-10 μM; incubated overnight (16-18 h); supernatant Aβ42 by sandwich ELISA; normalized to DMSO and DAPT; read-out: Aβ42 H4 Prot Fre IC50. The protocol: Human neuroglioma H4 cells were transfected with a pcDNA3.1 plasmid expressing human wild type APP751 cDNA and a stable cell line was generated using G418 selection. Cells are plated at 15,000 cells/well in Costar 96-well plates and placed at 37° C. and 5% CO2. Six hours after plating, cells are washed three times with Pro293™ chemically defined medium, followed by addition of compounds (0.003-10 μM, final DMSO concentration of 0.33%). Plates were incubated overnight (16-18 h) and supernatant was removed for quantification of AP peptides by sandwich ELISA. Cytotoxicity was evaluated using Cell-Titer 96W AQueous One Solution Cell Proliferation Assay according to the manufacturer's protocol.
ELISA Measurements of Aβ Peptides
Aβ peptide levels were quantified by sandwich ELISA. 96-well plates are coated with C-terminal specific Aβ antibodies recognizing either Aβ37, Aβ38, Aβ40, Aβ42, Aβ43 or a N-terminal specific Aβ antibody to detect Aβ 1-x. Plates are then blocked overnight at 4° C. with 1% bovine serum albumin (BSA) in PBS-T. Plates are washed and 100 μl of cultured cell supernatant or synthetic Aβ peptide standards and a detection antibody (4G8-HRP) are applied to the blocked plate and incubated overnight at 4° C. The next day, wells are washed before the addition […] of detection substrate (TMB peroxidase). Plates are then read for absorbance at 450 nm on a Molecular Devices SpectraMax M5e Microplate Reader.
IC50 values were calculated from values reported as percent of DMSO controls using nonlinear regression, based on a sigmoidal dose-response (variable slope) model. GraphPAD software from Prism used for calculation.
Background: ELISA stands for enzyme-linked immunosorbent assay.
With `COc1cc(Nc2ncc3c(n2)N(C)C(c2cc(F)c(F)cc2Cl)CO3)ccc1-n1cnc(C)c1` (single isomer, unassigned; (-)) [Example 103B], the pIC50 – broadly, −log10 of the IC50, conventionally taken in molar units – is 6.66.
Next, `COc1cc(Nc2ncc3c(n2)N(C)C(c2cc(F)c(F)cc2Cl)CO3)ccc1-n1cnc(C)c1` (single isomer, unassigned; (+)) [Example 103A]: 7.72.
As for `COc1ccc(C)c(C2COc3cnc(Nc4cnc(-n5cnc(C)c5)c(OC)c4)nc3N2C)c1` (single isomer, unassigned; (+)) [Example 207A], the figure is 8.00; as for `COc1cc(Nc2ncc3c(n2)N(C)C(c2cc(F)cc(F)c2)CO3)ccc1C#N` (single isomer, unassigned; (-)) [Example 237A, (−)-4-((7-(3,5-difluorophenyl)-8-methyl-7,8-dihydro-6H-pyrimido [5,4-b] [1, 4]oxazin-2-yl)amino)-2-methoxybenzonitrile], below 5.52.
As for `Cc1cc(-c2ccc(Nc3ncc4c(n3)N(C)C(c3ccccc3)CO4)cc2)ccn1` (single isomer, unassigned; (+)) [Example 24A], the figure is 7.17; as for `Cc1cn(-c2ccc(Nc3ncc4c(n3)N(C)C3(CCCC3)CO4)cc2F)cn1` [Example 279], 6.60; as for `COc1cc(Nc2ncc3c(n2)N(C)C(C)(C)CO3)ccc1-n1cnc(C)c1` [Example 254], 7.27.
Regarding `Cc1cc(-c2ccc(Nc3ncc4c(n3)N(C)C(c3cc(F)cc(F)c3)CO4)cc2F)ccn1` (single isomer, unassigned; (-)) [Example 41B], the pIC50 was 5.90.
Regarding `COc1cc(Nc2ncc3c(n2)N(C)C(c2ccccc2)CO3)ccc1-n1cnc(C)c1` (racemic) [Example 45, N-(3-methoxy-4-(4-methyl-1H-imidazol-1-yl)phenyl)-8-methyl-7-phenyl-7,8-dihydro-6H-pyrimido[5,4-b][1,4]oxazin-2-amine], the pIC50 is 7.24.
As for `CN1c2nc(Nc3ccc(C#N)cc3)ncc2OCC1c1cc(F)cc(F)c1` (single isomer, unassigned; (-)) [Example 233B, (−)-4-((7-(3,5-difluorophenyl)-8-methyl-7,8-dihydro-6H-pyrimido [5,4-b] [1, 4]oxazin-2-yl)amino) benzonitrile], the figure is below 5.52; as for `COc1cc(Nc2ncc3c(n2)N(C)C(C2COC2)CO3)cnc1-n1cnc(C)c1` (single isomer, unassigned; (-)) [Example 243B], 6.09.
Take `COc1ccc(C)c(C2COc3cnc(Nc4cnc(-n5cnc(C)c5)c(OC)c4)nc3N2C)c1` (single isomer, unassigned; (-)) [Example 207B]: the pIC50 was 7.02.
Next, `Cc1cn(-c2ccc(Nc3ncc4c(n3)N(C)C(C(F)(F)F)CO4)cc2C#N)cn1` (single isomer, unassigned; (+)) [Example 232A, (+)-2-(4-methyl-1H-imidazol-1-yl)-5-((8-methyl-7-(trifluoromethyl)-7,8-dihydro-6H-pyrimido [5,4-b] [1, 4]oxazin-2-yl)amino) benzonitrile]: 6.55; `Cc1cn(-c2ccc(Nc3ncc4c(n3)N(C)C(c3cc(F)cc(F)c3)CO4)nc2C#N)cn1` (single isomer, unassigned; (+)) [Example 192B, (+)-6-((7-(3,5-difluorophenyl)-8-methyl-7,8-dihydro-6H-pyrimido [5,4-b] [1, 4]oxazin-2-yl)amino)-3-(4-methyl-1H-imidazol-1-yl) picolinonitrile]: 6.24; `COc1cc(Nc2ncc3c(n2)N(C)C(C)CO3)ccc1-c1ccnc(C)c1` (single isomer, unassigned; (+)) [Example 110B]: 7.04.
As to `COc1cc(Nc2ncc3c(n2)N(C)C(c2ccc(C(F)(F)F)cc2C(F)(F)F)CO3)ccc1-n1cnc(C)c1` (racemic) [Example 91], the pIC50 is 6.96.
`COc1cc(Nc2ncc3c(n2)N(C)C(c2cc(F)cc(F)c2)CO3)cnc1-n1cnc(C#N)c1` (single isomer, unassigned; (+)) [Example 211A, (+)-1-(5-((7-(3,5-difluorophenyl)-8-methyl-7,8-dihydro-6H-pyrimido [5,4-b] [1, 4]oxazin-2-yl)amino)-3-methoxypyridin-2-yl)-1H-imidazole-4-carbonitrile]: the pIC50 was 6.75.
Consider `COc1ccc(Cl)c(C2COc3cnc(Nc4ccc(-n5cnc(C)c5)c(OC)c4)nc3N2C)c1` (racemic) [Example 87], for which the pIC50 was 7.38.
Take `COc1cc(Nc2ncc3c(n2)N(C)C(c2cc(Cl)ccc2C(F)(F)F)CO3)ccc1-n1cnc(C)c1` (single isomer, unassigned; (+)) [Example 165A]: the negative logarithm of the IC50 (pIC50) was 7.05.
As for `COc1cc(Nc2ncc3c(n2)N(C)C(c2ccccc2C(F)(F)F)CO3)ccc1-n1cnc(C)c1` (racemic) [Example 55], the figure is 7.43; as for `COc1cc(Nc2ncc3c(n2)N(C)[C@@H](C2CCC2)CO3)ccc1-n1cnc(C)c1` [Example 227], 7.72; as for `COc1cc(Nc2ncc3c(n2)N(C)C(C2CCOCC2)CO3)ccc1-n1cnc(C)c1` (single isomer, unassigned; (+)) [Example 114B], 7.11.
As to `COc1cc(Nc2ncc3c(n2)N(C)C(c2ccc(F)cc2C)CO3)ccc1-n1cnc(C)c1` (single isomer, unassigned; (+)) [Example 117B], the negative-log IC50 (pIC50) is 7.66.
For the compound `COc1cc(Nc2ncc3c(n2)N(C)C(c2ccccc2C)CO3)ccc1-n1cnc(C)c1` (racemic) [Example 31], the pIC50 was 7.60.
As for `Cc1cn(-c2ccc(Nc3ncc4c(n3)N(C)C(c3cc(F)cc(F)c3)CO4)cc2C#N)cn1` (single isomer, unassigned; (-)) [Example 203B, (−)-5-((7-(3,5-difluorophenyl)-8-methyl-7,8-dihydro-6H-pyrimido [5,4-b] [1, 4]oxazin-2-yl)amino)-2-(4-methyl-1H-imidazol-1-yl) benzonitrile], the figure is 6.68.
Next, `COc1ccc(C2COc3cnc(Nc4ccc(-n5cnc(C)c5)c(OC)c4)nc3N2C)c(C)c1` (single isomer, unassigned; (+)) [Example 199A]: 7.60; `COc1cc(Nc2ncc3c(n2)N(C)C(c2cc(F)cc(F)c2)CO3)ccc1-n1cnc(C)n1` (single isomer, unassigned; (+)) [Example 244A]: 7.64; `COc1cc(Nc2ncc3c(n2)N(C)C(c2ccc(F)cc2Cl)CO3)ccc1-n1cnc(C)c1` (racemic) [Example 53]: 7.43.
Regarding `COc1ccc(Cl)c(C2COc3cnc(Nc4cnc(-n5cnc(C)c5)c(OC)c4)nc3N2C)c1` (single isomer, unassigned; (-)) [Example 208B], the negative-log IC50 (pIC50) was 6.87.
Next, `COc1cc(Nc2ncc3c(n2)N(C)C(C(F)(F)F)CO3)ncc1-n1cnc(C)c1` (single isomer, unassigned; (-)) [Example 236B]: 6.61.
With `COc1nc(Nc2ncc3c(n2)N(C)C(c2ccccc2C)CO3)ccc1-n1cnc(C)c1` (single isomer, unassigned; (-)) [Example 180A], the pIC50 was below 5.52.
As for `CN1c2nc(Nc3ccc(C#N)cc3)ncc2OCC1c1cc(F)cc(F)c1` (single isomer, unassigned; (+)) [Example 233A, (+)-4-((7-(3,5-difluorophenyl)-8-methyl-7,8-dihydro-6H-pyrimido [5,4-b] [1, 4]oxazin-2-yl)amino) benzonitrile], the figure is 6.05.
